Data on 13 compounds can be found in patent US20230303544A1, “LMO2 PROTEIN INHIBITORS” (UNIVERSITY OF OXFORD, priority 2020, published 2023).

Data set [1] has as its target T1, LMO2-iDAb LMO2dm3 interaction (Homo sapiens, UniProt P25791).
T1 construct: LMO2 cDNA was cloned into the pEF-RLuc8-MCS and pEF-MCS-RLuc8 plasmids; expressed in transfected cells; host or cells: HEK293T
T1 sequence (P25791 1-158): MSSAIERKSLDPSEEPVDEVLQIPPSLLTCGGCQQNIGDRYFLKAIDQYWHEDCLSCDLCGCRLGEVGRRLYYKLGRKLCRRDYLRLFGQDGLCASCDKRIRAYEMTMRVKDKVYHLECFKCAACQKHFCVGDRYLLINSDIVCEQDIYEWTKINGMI
Description: LMO2-iDAb LMO2dm3 BRET assay. It counts as cell-based. The following applies: 22 h; for inhibition of LMO2-iDAb LMO2dm3 interaction (in words): BRET competition, Abd concentration 1 (or 5), 10, 20 μM; for IC50: BRET dose response, HEK293T cells, 0.01-50 μM. As for the experimental part:
For all BRET experiments (titration curves and competition assays) 650,000 HEK293T were seeded in each well of a 6 well plates. After 24 hours at 37° C., cells were transfected with a total of 1.6 μg of DNA mix, containing the donor+acceptor±competitor plasmids, using Lipofectamine 2000 transfection reagent (Thermo-Fisher). In dose response competition experiments, competitors were transfected with the following amount of DNA: 0.1; 0.5 and 1 μg. In single dose competition experiments, competitors were transfected with […] of DNA. Cells were detached 24 hours later, washed with PBS and seeded in a white 96-well plate (clear bottom, PerkinElmer, Cat #6005181) in OptiMEM no phenol red medium complemented with 4% FBS and cells were incubated for an additional 20-24 hours at 37° C. before the BRET assay reading. A detailed BRET protocol is provided by Bery and Rabbitts, (2019).
Compounds were prepared in 100% DMSO at 10 mM. For BRET competition assays, cells were treated with the indicated compounds at concentration of 1 (or 5), 10 and 20 μM for 22 h. For BRET-based dose response experiments, cells were treated with compounds at concentration of 0.01, 0.1, 1, 4, 10, 25 and 50 μM for 22 h. The compounds were diluted in the BRET medium: OptiMEM no phenol red (Life Technologies) supplemented with 4% FBS and with a final concentration of 0.2% DMSO.
BRET2 signal was determined immediately after injection of coelenterazine 400a substrate (10 μM final) to cells (Cayman Chemicals), using a CLARIOstar instrument (BMG Labtech) with a luminescence module. Total GFP^2 fluorescence was detected with excitation and emission peaks set at 405 nm and 515 nm respectively. Total RLuc8 luminescence was measured with the Luminescence 400-700 nm-wavelength filter.
The BRET signal or BRET ratio corresponds to the light emitted by the GFP^2 acceptor constructs (515 nm±30) upon addition of coelenterazine 400a divided by the light emitted by the RLuc8 donor constructs (410 nm±80). The background signal is subtracted from that BRET ratio using the donor-only negative control where only the RLuc8 fusion plasmid is transfected into the cells. The normalized BRET ratio is the BRET ratio normalized to a negative control (iDAb control or DMSO control) during a competition assay. Total GFP^2 and RLuc8 signals were used to control the protein expression from each plasmid.
(In BRET a luciferase serves as donor, and the signal depends on an acceptor being close.)

A short description of data set [2]: Parallel artificial membrane permeability assay (PAMPA). It counts as in vitro ADME. The following applies: 10 μM donor, pH 5, 6.5 and 7.4, 16 hours, 30° C. As for the experimental part:
The parallel artificial membrane permeability assay (PAMPA) was used to determine compound permeability by passive diffusion. The assay used an artificial membrane consisting of 2% phosphatidyl choline in dodecane (Sigma Aldrich, Dorset, UK). The donor plate was a MultiScreen-IP Plate with 0.45 μm hydrophobe Immobilon-P Membrane (Millipore, UK) and the acceptor plate was a MultiScreen 96-well Transport Receiver Plate (Millipore, UK). The permeability was measured at 3 different pH levels: pH 5, 6.5 and pH 7.4 in buffer containing 1% Bovine Serum Albumin (Sigma Aldrich, Dorset, UK). A 10 mM DMSO stock solution of test compound was used to prepare the 10 μM PAMPA donor solutions and calibration curves in each of the three buffers.
6 μL of the membrane solution was added to each well of the donor plate. Buffer donor solutions (200 μL) were added to the appropriate wells of the PAMPA donor plate. 300 µL per well of blank PBS (pH 7.4) was added to the PAMPA acceptor plate.
The donor and acceptor plates were then sandwiched together, covered with a lid and incubated at 30° C. in a humid environment for 16 hours. After the incubation period the plates were removed from the incubator and the sandwich was dismantled. […] All sample supernatants were diluted and analysed using a Waters (Milford, MA, US) TQ-S LC-MS/MS system.
Permeability values (cm/s) were calculated using the following equation: […]
A general note: PAMPA measures passive passage across an artificial lipid membrane.

In data set [3] the test system is Caco-2 human colon carcinoma cell line. Description: Caco-2 permeability assay. It counts as in vitro ADME. The following applies: 10 μM, 2 hours, 37° C. As for the experimental part:
Caco-2 apparent permeability (Papp) was determined in the Caco-2 human colon carcinoma cell line as described (Bavetsias et al., 2016). Cells were maintained (DMEM with 10% fetal bovine serum, penicillin, and streptomycin) in a humidified atmosphere with 5% CO2/95% air for 10 days. Cells were plated out onto a cell culture assembly plate (Millipore, UK), and monolayer confluency was checked using a TEER electrode prior to the assay. Media was washed off and replaced with HBSS buffer (pH7.4) containing compound (10 μM, 1% DMSO) in the appropriate apical and basal donor wells. HBSS buffer alone was placed in acceptor wells. In particular instances a specific P-gp inhibitor, LY335979 (5 μM), was added to the HBSS. The Caco-2 plate was incubated for 2 hours at 37° C. Samples from the apical and basolateral chambers were analysed using a Waters (Milford, MA, US) TQ-S LC-MS/MS system. The cell permeability properties of Abd-L compounds was compared to low (nadolol) and high (antipyrine) permeability compounds and a compound with high export (indinavir).
Apparent permeability (Papp) was determined as follows: […]
On the technique in general: Passage across Caco-2 layers is used to estimate intestinal permeability.

In data set [4] the target is T2, LMO2-LID (Homo sapiens, UniProt P25791).
T2 construct: made in house; host or cells: E. coli BL21(DE3)-Rosetta2 pLysS
T2 sequence (P25791 26-156 limits assumed): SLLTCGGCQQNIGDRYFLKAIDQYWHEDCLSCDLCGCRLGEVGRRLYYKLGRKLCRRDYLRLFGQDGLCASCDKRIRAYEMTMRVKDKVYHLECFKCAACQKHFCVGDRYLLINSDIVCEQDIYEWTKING
T2 sequence (Q86U70 336-375 partner limits assumed): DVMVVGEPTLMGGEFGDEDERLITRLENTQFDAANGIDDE
Description: WaterLOGSY NMR binding to LMO2-LID. The following applies: RT. Here is the method:
(§1) WaterLOGSY NMR method was used to measure LMO2 ligand interaction (Bataille et al., 2020). WaterLOGSY experiments were conducted at a ^1H frequency of 600 MHz using a Bruker Avance spectrometer equipped with a BBI probe. All experiments were conducted at RT. 3 mm diameter NMR tubes with a sample volume of 200 μL were used for all experiments. For LMO2-LID, solutions were buffered using a 10 mM NaPO4, 250 mM NaCl solution. For LMO2-ΔLID, solutions were buffered using a 10 mM NaPO4, 50 mM NaCl solution. The sample preparation for measuring ligand binding with LMO2-LID is exemplified as follows; the compound (10 μL of a 10 mM solution in DMSO-d6) was added to an Eppendorf tube before sequential addition of the appropriate buffer (90 μL), D2O (20 μL), and the protein (80 μL, 25 μM). The resulting solution was vortexed to mix and transferred to a 3 mm NMR tube prior to the NMR analysis. The sample preparation for measuring ligand binding with LMO2-ΔLID is exemplified as follows; the compound (10 μL of a 10 mM solution in DMSO-d6) was added to an Eppendorf tube before sequential addition of the appropriate buffer (162 μL), D2O (20 μL), and the protein (8 μL, 250 μM). The resulting solution was vortexed to mix and transferred to a 3 mm NMR tube prior to the NMR analysis. […]

Data set [5] addresses T3, LMO2-ΔLID (Homo sapiens, UniProt P25791).
T3 construct: UniProt P25791; residues 26-156; hexa-histidine tag (N, cleaved yes); SUMO (N, cleaved yes); made in house; host or cells: E. coli Lemo21(DE3)
T3 sequence (P25791 with tags, fused parts or gaps): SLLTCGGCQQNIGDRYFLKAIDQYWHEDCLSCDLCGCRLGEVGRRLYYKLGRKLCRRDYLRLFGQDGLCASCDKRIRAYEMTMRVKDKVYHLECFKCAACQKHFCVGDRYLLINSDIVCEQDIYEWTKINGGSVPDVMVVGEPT
Description: WaterLOGSY NMR binding to LMO2-ΔLID. The following applies: RT. As for the experimental part: as §1

Structures are written as SMILES. “And” between values parts separate entries of the source, which are not always exact repeats. Equal values may be shown once.

Take `CS(=O)(=O)Nc1ccccc1NC(=O)c1cnc(N2CCN(Cc3ccccc3)C2=O)s1` [Abd-L5, 2-(3-benzyl-2-oxoimidazolidin-1-yl)-N-(2-(methylsulfonamido)phenyl)thiazole-5-carboxamide]: the “inhibition of LMO2-iDAb LMO2dm3 interaction (in words)” value (“inhibition” for short) in data set [1] is on record as “unable to inhibit”. In the case of `COc1ccc(NC(=O)c2cnc(N3CCN(Cc4ccc(Cl)cc4)C3=O)o2)cc1OC` [Abd-L8, 2-(3-(4-chlorobenzyl)-2-oxoimidazolidin-1-yl)-N-(3,4-dimethoxyphenyl)oxazole-5-carboxamide], the “inhibition” value in data set [1] was “unable to inhibit”. In general, IC50 refers to the point on the concentration scale where inhibition reaches its midpoint. The low end stands for greater potency, the high end for weaker potency. For the compound `COc1cccc(CN2CCN(c3nc(C(=O)Nc4ccc(OCc5ccccc5)cc4)co3)C2=O)c1` [Abd-L9, N-(4-(benzyloxy)phenyl)-2-(3-(3-methoxybenzyl)-2-oxoimidazolidin-1-yl)oxazole-4-carboxamide], in data set [2], the “PAMPA permeability (in words)” value is “best properties”. Further, in data set [1], the “inhibition” value is “most potent inhibitor” and the IC50 turned out to be 1.5 µM. Further, in data set [3], the “Caco-2 cell permeability (in words)” value is given as “low transport” and the “Caco-2 efflux (in words)” value is “low efflux ratio”. In addition, the “binding to LMO2-LID by waterLOGSY NMR” value in data set [4] is reported as “not”. Further, the “binding to LMO2-ΔLID by waterLOGSY NMR” value in data set [5] is “bind and showed binding and Direct binding”.

In the case of `N#Cc1cccc(CN2CCN(c3nc(C(=O)Nc4ccc(-n5cccc5)cc4)co3)C2=O)c1` [Abd-L10, N-(4-(1H-pyrrol-1-yl)phenyl)-2-(3-(3-cyanobenzyl)-2-oxoimidazolidin-1-yl)oxazole-4-carboxamide], the IC50 in data set [1] was ~1 µM and 1 µM. Turning to `O=C(NCCc1ccccc1)c1cnc(N2CCN(Cc3ccc(Cl)cc3)C2=O)o1` [Abd-L11, 2-(3-(4-chlorobenzyl)-2-oxoimidazolidin-1-yl)-N-phenethyloxazole-5-carboxamide], the “inhibition” value in data set [1] is listed as “unable to inhibit”.

Consider `O=C(NCc1ccc(Oc2ccccc2)cc1)c1coc(N2CCN(Cc3ccccc3)C2=O)n1` [Abd-L13, 2-(3-benzyl-2-oxoimidazolidin-1-yl)-N-(4-phenoxybenzyl)oxazole-4-carboxamide], for which, in data set [4], the “binding to LMO2-LID by waterLOGSY NMR” value is “not”. Further, in data set [5], the “binding to LMO2-ΔLID by waterLOGSY NMR” value was “bind and showed binding and Direct binding”.

In data set [1], `COc1cccc(CN2CCN(c3nc(C(=O)Nc4ccc(-n5cccc5)cc4)co3)CC2)c1` [Abd-L15, N-(4-(1H-pyrrol-1-yl)phenyl)-2-(4-(3-methoxybenzyl)piperazin-1-yl)oxazole-4-carboxamide] displayed a half-inhibitory concentration (IC50) of 16.6 µM. Compound `COc1cccc(CN2CCN(c3nc(C(=O)Nc4ccc(OCc5ccccc5)cc4)co3)CC2)c1` [Abd-L16, N-(4-(benzyloxy)phenyl)-2-(4-(3-methoxybenzyl)piperazin-1-yl)oxazole-4-carboxamide] registered an IC50 in data set [1] of 1.2 µM. For the compound `COc1cccc(CN2CCN(c3nc(C(=O)Nc4ccc(OCc5ccccc5)cc4)cs3)CC2)c1` [Abd-L17, N-(4-(benzyloxy)phenyl)-2-(4-(3-methoxybenzyl)piperazin-1-yl)thiazole-4-carboxamide], the half-inhibitory concentration (IC50) in data set [1] was found to be 13 µM. Same read-out and setting: for `COc1cccc(CN2CCN(c3nc(C(=O)Nc4ccc(-n5cccc5)cc4)cs3)CC2)c1` [Abd-L18, N-(4-(1H-pyrrol-1-yl)phenyl)-2-(4-(3-methoxybenzyl)piperazin-1-yl)thiazole-4-carboxamide] the value was 15.8 µM; for `COc1ccc(CN2CCN(c3nc(C(=O)Nc4ccc(-n5cccc5)cc4)co3)CC2)cc1` [Abd-L19, N-(4-(1H-pyrrol-1-yl)phenyl)-2-(4-(4-methoxybenzyl)piperazin-1-yl)oxazole-4-carboxamide], 48.8 µM. In the case of `COc1cccc(CN2CCCN(c3nc(C(=O)Nc4ccc(-n5cccc5)cc4)co3)C2=O)c1` [Abd-L24, N-(4-(1H-pyrrol-1-yl)phenyl)-2-(3-(3-methoxybenzyl)-2-oxotetrahydropyrimidin-1(2H)-yl)oxazole-4-carboxamide], in data set [1], the “inhibition” value is reported as “do not affect”. With `COc1cccc(CN2CCN(c3nccc(C(=O)Nc4ccc(-n5cccc5)cc4)n3)CC2)c1` [Abd-L25, N-(4-(1H-pyrrol-1-yl)phenyl)-2-(4-(3-methoxybenzyl)piperazin-1-yl)pyrimidine-4-carboxamide], in data set [1], the “inhibition” value was “do not affect”.
